The values that follow come from publication PMC4313523, “Decolorization of Anthraquinonic Dyes from Textile Effluent Using Horseradish Peroxidase: Optimization and Kinetic Study” (The Scientific World Journal, 2015).

Read-outs that look alike come from different tables or passages of the source.

The test system of test [1] is T1, horseradish peroxidase (HRP).
T1 construct: gene PRXC1A; commercial enzyme from Sigma-Aldrich, 250 purpurogallin units per mg
In words: dye decolorization initial rates, fit to ping-pong bi-bi model with dye inhibition. In kind it is biochemical. The settings on record: substrate inhibition (dead-end complex). The source says:
dye decolorization initial rates, fit to ping-pong bi-bi model with dye inhibition on horseradish peroxidase (HRP)

Test [2] shares this test system. In words: dye decolorization initial rates, fit to ping-pong bi-bi model with H2O2 inhibition (best fit). It counts as biochemical. The settings on record: read-out: Hydrogen peroxide inhibition.
Description: dye decolorization initial rates, fit to ping-pong bi-bi model with H2O2 inhibition (best fit) on horseradish peroxidase (HRP)

In test [1] (H2O2 fixed at 0.1 mM, dye 0.015-0.051 mM, pH 5.5, 24 °C, 0.04 IU/mL HRP, R2 0.9602), `Cc1cc(C)c(Nc2cc(S(=O)(=O)O)c(N)c3c2C(=O)c2ccccc2C3=O)c(C)c1NC(=O)C(Br)=CBr` [AB 225, C.I. Acid Blue 225] registered a Dye inhibition of 0.0126 mM. The Km in test [2] (co-substrate H2O2 varied at dye 0.029 mM, pH 5.5, 24 °C, 0.04 IU/mL HRP, R2 0.9908) was determined as 152 µM.
Take C.I. Acid Violet 109 [AV 109]: the Dye inhibition in test [1] (H2O2 fixed at 0.06 mM, dye 0.012-0.043 mM, pH 5.25, 24 °C, 0.15 IU/mL HRP, R2 0.9225) worked out at 0.0080 mM. Moreover, the Km in test [2] (co-substrate H2O2 varied at dye 0.018 mM, pH 5.25, 24 °C, 0.15 IU/mL HRP, R2 0.9902) was 330 µM.
